# Legend:
# Maiden Merino ewes = conditions: in vivo
# ewes = conditions: in vivo; cited from earlier work
smiles,measurement,setting,value
"COc1ccc2[nH]cc(CCNC(C)=O)c2c1 [Melatonin, N-acetyl 5-methoxy tryptamine]",superovulation,Maiden Merino ewes,does not induce superovulation
same,basal prolactin levels,ewes,depressed
same,breeding season,ewes,advanced
